Some test systems named below: Proteus vulgaris; Staphylococcus aureus MR; Candida albicans; Bacillus cereus AS1.126; Escherichia coli AS1.349.
What all share (test): ≥ marks a high value that may be exact or a test limit, other limits are often not marked, values filed in µg/mL are converted to µM
In test [1] the test system is Mycobacterium tuberculosis H37Rv.
Test [2] relates to Pseudomonas syringae pv. syringae DSM 10604.
In test [3] the test system is Pseudomonas corrugata DSM 7228.
Test [4] relates to Xanthomonas vesicatoria DSM 50861.
In test [5] the test system is Clavibacter michiganensis subsp. michiganensis DSM 46294.
Test [6] has as its system Pectobacterium carotovorum subsp. carotovorum DSM 30168.
The subject of test [7] is Pseudomonas syringae pv. tomato DC3000.
For test [8], the system named is Staphylococcus epidermidis ATCC 12228.
In test [9] the test system is Candida albicans ATCC 24433.
For test [10], the system named is Escherichia coli ATCC 25922.
For test [11], the system named is Bacillus megaterium KCTC 1096.
Test [12] concerns Escherichia coli KCTC 1682.
The test system of test [13] is Bacillus subtilis KCTC 1918.
Test [14] deals with Staphylococcus aureus KCTC 1621.
Test [15] has as its system Pseudomonas aeruginosa KCTC 1637.
Test [16] has as its system Cronobacter sakazakii DPC 6440.
In test [17] the test system is Listeria monocytogenes LO28.
Test [18] concerns Candida parapsilosis ATCC 22019.
Test [19] has as its system Staphylococcus aureus ATCC 25923.
The test system of test [20] is Lactococcus lactis AS1.1690.
For test [21], the system named is Enterococcus faecalis CGMCC 1.595.
Test [22] has as its system Staphylococcus aureus AS1.72.
Test [23] concerns Enterococcus faecium CGMCC 1.2334.
For test [24], the system named is Pseudomonas aeruginosa CGMCC 1.860.

The record followed here is DBAASP.

The structures appear in SMILES notation. Values after ≈ are worked out from the molar mass of the structure shown.

Take `CC[C@H](C)[C@H](NC(=O)[C@H](Cc1c[nH]c2ccccc12)NC(=O)[C@H](CCCN=C(N)N)NC(=O)[C@H](CCCCN)NC(=O)[C@H](C)NC(=O)[C@H](CC(C)C)NC(=O)[C@H](CCCN=C(N)N)NC(=O)[C@H](CC(=O)O)NC(=O)[C@@H](NC(=O)[C@H](CC(N)=O)NC(=O)[C@H](CCC(=O)O)NC(=O)[C@H](CCC(=O)O)NC(=O)[C@H](CO)NC(=O)[C@@H](NC(=O)[C@H](CC(N)=O)NC(=O)[C@H](CCCN=C(N)N)NC(=O)[C@H](C)N)C(C)C)C(C)C)C(=O)N[C@@H](CCCCN)C(=O)O` [ARNVSEENVDRLAKRWIK]: in test [1], the minimum inhibitory concentration (MIC) is at least 68.7 µM.

Consider `CC(C)C[C@H](NC(=O)[C@H](CCCN=C(N)N)NC(=O)[C@H](CCCCN)NC(=O)[C@H](Cc1ccccc1)NC(=O)[C@H](Cc1ccccc1)NC(=O)[C@H](CCCCN)NC(=O)[C@H](Cc1ccccc1)NC(=O)[C@H](CCCCN)NC(=O)[C@H](CCCCN)NC(=O)[C@H](CCCCN)NC(=O)[C@@H](N)CCCN=C(N)N)C(=O)N[C@@H](Cc1ccccc1)C(N)=O` [RKKKFKFFKRLF], for which the minimal inhibitory concentration (MIC) in [2] came to 0.0598 µM (≈ 0.1 µg/mL); in test [3] it was 0.149 µM (≈ 0.25 µg/mL); in test [4], 0.299 µM (≈ 0.5 µg/mL); in test [5], 0.299 µM (≈ 0.5 µg/mL); in test [6] it was 5.98 µM (≈ 9.99 µg/mL); in test [7], 5.98 µM (≈ 9.99 µg/mL).

Regarding `CC[C@H](C)[C@H](NC(=O)CNC(=O)[C@@H](NC(=O)[C@H](C)NC(=O)[C@@H](NC(=O)[C@H](CCCCN)NC(=O)[C@@H]1CCCN1C(=O)[C@@H](NC(=O)[C@H](CCSC)NC(=O)[C@H](CO)NC(=O)[C@H](Cc1ccccc1)NC(=O)[C@@H](N)Cc1ccccc1)[C@@H](C)CC)[C@@H](C)CC)[C@@H](C)O)C(=O)N[C@@H](C)C(=O)N[C@@H](CO)C(=O)N[C@@H](CC(C)C)C(=O)N[C@H](C(=O)N[C@@H](CCCCN)C(=O)N[C@@H](CC(N)=O)C(=O)N[C@@H](CC(C)C)C(=O)O)C(C)C` [FFSMIPKIATGIASLVKNL], the minimal inhibitory concentration (MIC) in test [8] was over 100 µM; in test [9], at least 100 µM; in test [10], over 100 µM.

Turning to `CC[C@H](C)[C@H](NC(=O)[C@H](CCCCN)NC(=O)[C@H](CCCCN)NC(=O)[C@H](Cc1ccccc1)NC(=O)[C@@H](N)Cc1c[nH]c2ccccc12)C(=O)N1CCC[C@H]1C(=O)N[C@@H](CCCCN)C(=O)N[C@@H](Cc1ccccc1)C(=O)N[C@@H](CC(C)C)C(=O)N[C@@H](Cc1cnc[nH]1)C(=O)N[C@@H](CC(C)C)C(=O)N[C@@H](CC(C)C)C(=O)N[C@@H](CCCCN)C(=O)N[C@@H](CCCCN)C(=O)N[C@@H](Cc1ccccc1)C(N)=O` [WFKKIPKFLHLLKKF], the minimal inhibitory concentration (MIC) came out at 0.78 µM (≈ 1.54 µg/mL) in [11]; 12.5 µM (≈ 24.7 µg/mL) with Proteus vulgaris; 3.12 µM (≈ 6.16 µg/mL) in test [12]; 0.78 µM (≈ 1.54 µg/mL) in test [13]; 3.12 µM (≈ 6.16 µg/mL) in test [14]; 1.56 µM (≈ 3.08 µg/mL) in test [15].

As to `CC[C@H](C)[C@H](NC(=O)[C@H](C)N)C(=O)N[C@@H](CCC(N)=O)C(=O)N1CCC[C@H]1C(=O)N[C@@H](CCCCN)C(=O)N[C@H](C(=O)N[C@@H](CCCCN)C(=O)N[C@H](C(=O)N[C@H](C(=O)N1CCC[C@H]1C(=O)N[C@@H](Cc1ccc(O)cc1)C(=O)N[C@H](C(=O)N[C@@H](CCCN=C(N)N)C(=O)N[C@@H](Cc1ccc(O)cc1)C(=O)N[C@@H](CC(C)C)C(=O)O)C(C)C)[C@@H](C)CC)C(C)C)[C@@H](C)O` [AIQPKTKVIPYVRYL], the MIC in test [16] and in [17] was at least 78.1 µM in each case.

With `CC[C@H](C)[C@H](NC(=O)[C@@H](N)Cc1c[nH]c2ccccc12)C(=O)N[C@@H](CCC(N)=O)C(=O)N1CCC[C@H]1C(=O)N[C@@H](CCCCN)C(=O)N[C@H](C(=O)N[C@@H](CCCCN)C(=O)N[C@H](C(=O)N[C@H](C(=O)N1CCC[C@H]1C(=O)N[C@@H](Cc1ccc(O)cc1)C(=O)N[C@H](C(=O)N[C@@H](C)C(=O)N[C@@H](Cc1ccc(O)cc1)C(=O)N[C@@H](CC(C)C)C(=O)O)C(C)C)[C@@H](C)CC)C(C)C)[C@@H](C)O` [WIQPKTKVIPYVAYL], the MIC is at least 625 µM in [16] and at least 156 µM in test [17].

`CC[C@H](C)[C@H](NC(=O)[C@H](CC(C)C)NC(=O)[C@H](CCC(=O)O)NC(=O)[C@H](CO)NC(=O)[C@H](CCCN=C(N)N)NC(=O)[C@@H](N)CO)C(=O)N[C@H](C(=O)N[C@@H](Cc1cnc[nH]1)C(=O)N[C@@H](CCC(N)=O)C(=O)N[C@@H](CCCN=C(N)N)C(=O)N[C@@H](CC(C)C)C(=O)N[C@@H](Cc1ccccc1)C(N)=O)C(C)C` [SRSELIVHQRLF]: the MIC in test [9] and in test [18] was at least 269 µM throughout.

With `CC[C@H](C)[C@H](NC(=O)[C@@H](NC(=O)[C@H](CCCCN)NC(=O)[C@@H](NC(=O)[C@H](CCCCN)NC(=O)[C@@H]1CCCN1C(=O)[C@H](CCC(N)=O)NC(=O)[C@@H](NC(=O)[C@@H](N)Cc1c[nH]c2ccccc12)[C@@H](C)CC)[C@@H](C)O)C(C)C)C(=O)N[C@@H](C)C(=O)N[C@@H](Cc1ccc(O)cc1)C(=O)N[C@H](C(=O)N[C@@H](CCCN=C(N)N)C(=O)N[C@@H](Cc1ccc(O)cc1)C(=O)N[C@@H](CC(C)C)C(=O)O)C(C)C` [WIQPKTKVIAYVRYL], the MIC in test [16] is at least 39.1 µM; in test [17], 2.44 µM (≈ 4.58 µg/mL).

For `CC[C@H](C)[C@@H]1NC(=O)[C@H](CCC(N)=O)NC(=O)[C@H](CCC(=O)O)NC(=O)[C@H](CCC(=O)O)NC(=O)[C@H](CCCCN)NC(=O)CNC(=O)[C@H](CC(C)C)NC(=O)[C@@H]2CSSC[C@@H](C(=O)N[C@@H](CCCN=C(N)N)C(=O)N[C@@H](CCCCN)C(=O)N[C@@H](CCCCN)C(=O)N[C@@H](CCCCN)C(=O)O)NC(=O)[C@@H]3CSSC[C@H](NC(=O)[C@H](Cc4ccccc4)NC(=O)[C@H](Cc4ccccc4)NC(=O)[C@H](CCCCN)NC(=O)[C@H](CCCN=C(N)N)NC(=O)[C@H](CC(C)C)NC(=O)[C@@H](NC(=O)[C@H](CCCCN)NC(=O)[C@@H]4CCCN4C(=O)[C@H](CC(C)C)NC(=O)[C@@H](N)Cc4ccccc4)[C@@H](C)O)C(=O)N[C@@H](CCCN=C(N)N)C(=O)N[C@@H]([C@@H](C)CC)C(=O)N[C@@H](CCCN=C(N)N)C(=O)NCC(=O)NCC(=O)N[C@@H](CCCN=C(N)N)C(=O)N[C@@H](CSSC[C@H](NC(=O)[C@H](CCCN=C(N)N)NC(=O)CNC1=O)C(=O)N[C@@H](CO)C(=O)N[C@@H](CC(N)=O)C(=O)N[C@@H](CO)C(=O)NCC(=O)N[C@@H](CCCN=C(N)N)C(=O)N[C@@H](CCCCN)C(=O)N3)C(=O)N[C@@H](C)C(=O)N[C@@H](C(C)C)C(=O)N[C@@H](CC(C)C)C(=O)N[C@@H](CC(N)=O)C(=O)N2` [FLPKTLRKFFCRIRGGRCAVLNCLGKEEQIGRCSNSGRKCCRKKK], the MIC in [9] amounted to 2.41 µM (≈ 12.5 µg/mL); in the test with Staphylococcus aureus MR it was 4.82 µM (≈ 25 µg/mL); in test [19], 0.385 µM (≈ 2 µg/mL); against Candida albicans, 2.41 µM (≈ 12.5 µg/mL).

As to `CC(C)[C@H](NC(=O)[C@H](CCCCN)NC(=O)[C@@H](N)CO)C(=O)N[C@@H](Cc1c[nH]c2ccccc12)C(=O)N[C@@H](CCCN=C(N)N)C(=O)N[C@@H](Cc1cnc[nH]1)C(=O)N[C@@H](Cc1c[nH]c2ccccc12)C(=O)O` [SKVWRHW], the minimal inhibitory concentration (MIC) (in test [20]; in test [21]; in test [22]; in test [23]; against Bacillus cereus AS1.126; in [24]) was at least 100 µM each time. In the test with Escherichia coli AS1.349, this compound showed a minimal inhibitory concentration (MIC) of at least 100 µM.
